Assays:
[1] = test system: hES-derived cardiomyocytes; assay: Beating of hES-derived cardiomyocytes in response to pharmacological agonists; assay type: cell-based, human; details: hES2/END-2 co-culture derived cardiomyocytes
Description: (§1) END-2 cells and hES cells were cultured as described in Example 1. The hES2 cell line from ES Cell International Pte Ltd was used in all experiments. […] Co-cultures were then grown for up to 6 weeks and scored for the presence of areas of beating muscle from 5 days onwards. HepG2 cells, a carcinoma cell line resembling liver parenchymal cells (Knowles et al, (1980) Science 209:497-9), were cultured in DMEM plus 10% FCS and passaged twice weekly. […] Hanging-drop cultures of P19 EC cells were initiated and maintained in DMEM/Ham's F12 (1:1), as described previously (Mummery et al, 1991), using regular FCS while bulk production of P19 embryoid bodies in the presence or absence of END-2 conditioned medium for isolation of RNA for Northem blotting, was in the presence of charcoal-stripped FCS, as described (Mummery et al, 1991) to reduce background levels of cardiomyocyte differentiation caused by lipophilic substances possibly with retinoid-like activity in FCS. P19 clone 6 were cultured in αMEM and treated αMEM conditioned by END-2 cells. For electrophysiology, beating aggregates were dissociated using collagenase and replated on gelatine-coated coverslips.
The majority of the experiments described here were carried out using the hES2 cell line (Reubinoff et al, 2000). […] Oct4 expression thus correlated with phenotypic characteristics of undifferentiated cells. hES cells were subcultured by transferring small clumps of undifferentiated cells either to new, mit.C-treated MEFs or confluent cultures of mit.C-treated END-2 cells. After approximately 5d under these conditions, epithelial cells became evident which over the next few days become fluid-filled cysts (FIG. 1A). […] In addition, by 10 d areas of rhythmically contracting cells in more solid aggregates become evident (FIG. 1A, 3e) with a variety of overall morphologies (FIG. 1B, 3e). […]

Brachyury T = assay: Northern blot of Brachyury T in P19EC aggregates; assay type: cell-based, mouse; details: FIG. 10B
Description: as §1
RNA was isolated from P19 aggregates and poly A+ RNA selected, as described previously (Mummery et al, 1990, Dev. Biol. 142: 406413).
Background differentiation levels are reduced virtually to zero if the FCS is passed over an activated charcoal column (DCC-FCS) to remove residual retinoids; in addition, differentiation is blocked by activin (van den Eijnden-van Raaij et al, 1991, Mech. Dev. 33:157-166). […] The P19EC assay system was preferred because these cells are feeder independent for undifferentiated growth. […] Moreover, the induction of Brachyury T is blocked by the additional presence of activin (FIG. 10B), consistent with its ability to block the formation of beating muscle in aggregates. The transient expression of Brachyury T is similar to that observed during early mesoderm differentiation during gastrulation of the mouse embryo.

P19 EC cells [2] = details: van den Eijnden-van Raaij et al, 1991; cited from earlier work
P19 EC cells [3] = assay: Induction of beating muscle in replated P19EC aggregates (hanging drops); assay type: cell-based, mouse
Description: as §1, with “coverslips. […]” for “coverslips.”

Question: Which “beating of hES-derived cardiomyocytes in response to agonist” value (“beating of hES-derived cardiomyocytes” below) [1] does the source give for `C[N+](C)(C)CCOC(N)=O` [carbachol] here?
Answer: upregulated

Question: Which “beating of hES-derived cardiomyocytes” value [1] does the source give for `CC(C)NCC(O)c1ccc(O)c(O)c1` (stereo not drawn) [isoprenaline] here?
Answer: upregulated

Question: With activin as the compound, how does the “effect on DMSO induced Brachyury T expression” value (Brachyury T; activin added with DMSO) read?
Answer: blocked

Question: What about the “effect on END-2 CM induced Brachyury T expression” value (Brachyury T; activin added with END-2 CM) of the same compound?
Answer: blocked

Question: And the “effect on differentiation of P19EC aggregates to beating muscle” value (P19 EC cells [2])?
Answer: blocked

Question: Which results are given for `C[S+](C)[O-]` [DMSO, dimethyl sulphoxide]?
Answer: cardiomyocyte differentiation of P19EC aggregates (P19 EC cells [3]; control, FIG. 10): induces cardiomyocyte differentiation; aggregates with beating muscle (P19 EC cells [3]; day 10, FIG. 10A): All aggregates beat; Brachyury T expression (early mesoderm marker) (Brachyury T; aggregation phase, first 3 days): induced

Question: Which “beating of hES-derived cardiomyocytes” value [1] does the source give for `CNC[C@H](O)c1cccc(O)c1` [phenylephrine] here?
Answer: upregulated

Reference: US8728457B2, “Methods of inducing differentiation of stem cells” (priority 2001, dated 2014)
